Results taken from publication PMC3686309 (ACS medicinal chemistry letters, 2013).

Columns and labels:
WT IDH1 = WT IDH1 (Homo sapiens, UniProt O75874); experiment: WT IDH1 enzyme inhibition; type: biochemical; details: at 100 μM
[1] = Cytotoxicity against WI-38 fibroblast cells; type: cell-based, human; details: human, WI-38 fibroblast cells
WI-38 fibroblast cells = experiment: Cytotoxicity against WI-38 fibroblast cells; type: cell-based, human

Sequence of WT IDH1 (O75874 whole entry): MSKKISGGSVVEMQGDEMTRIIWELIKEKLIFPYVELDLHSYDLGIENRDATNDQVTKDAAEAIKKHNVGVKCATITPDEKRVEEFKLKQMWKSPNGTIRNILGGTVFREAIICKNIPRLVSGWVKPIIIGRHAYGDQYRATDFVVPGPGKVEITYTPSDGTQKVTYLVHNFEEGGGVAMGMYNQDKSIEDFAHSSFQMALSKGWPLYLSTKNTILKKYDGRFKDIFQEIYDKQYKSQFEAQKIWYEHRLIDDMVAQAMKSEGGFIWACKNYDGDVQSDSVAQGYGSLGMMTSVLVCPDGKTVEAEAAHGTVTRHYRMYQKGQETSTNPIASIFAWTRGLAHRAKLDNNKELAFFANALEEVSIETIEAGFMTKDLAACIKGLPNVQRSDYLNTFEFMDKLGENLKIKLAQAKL

Compound	activity against WT IDH1 (WT IDH1)	EC50 [1] [µM]	cytotoxicity against human cells (in words) (WI-38 fibroblast cells)
O=c1ccc(Cc2ccccc2)cn1O [Compound 1]	no activity		
Cc1cc(Cc2ccccc2)n(O)c(=O)c1 [Compound 2]		> 50	do not have cytotoxicity
Cc1cc(Cc2ccc(O)cc2)n(O)c(=O)c1 [Compound 3]		> 50	do not have cytotoxicity
O=c1cccc(Cc2ccccc2)n1O [Compound 4]		> 50	
CC(C)c1cc(Cc2ccccc2)n(O)c(=O)c1 [Compound 5]		> 50	
